Laboratory results from patent publication US9393316B2, “Cancer targeting peptides for enhancing anti-cancer drug delivery and therapeutic efficiencies” (priority 2014, dated 2016).

What was measured:
H460 = test: Cellular ELISA of phage clones; type: binding, human
Procedure: (§1) The selected phages were further identified by ELISA screening. 1×10^4 cells were seeded into each well of 96-well ELISA plates (Falcon, Calif., USA) overnight and were fixed with 2% paraformaldehyde or methanol/acetone (1:1) for 10 min at RT. The plates were washed twice with PBS and were blocked with 1% BSA in PBS (w/v) for 30 min at RT. Then individual phage clones were added and incubated for 1 hr at RT. Following washing three times with PBS, the plates were incubated with horseradish peroxidase (HRP)-conjugated mouse anti-M13 phage antibody (GE Healthcare) at 1:2000 dilution for 1 hr at RT. The plates were washed three times with PBS again, and were subsequently incubated with the peroxidase substrate o-phenylenediamine dihydrochloride (OPD; Sigma) plus H2O2. The reaction was terminated by 3 N HCl, and the absorbance was measured using microplate reader (Model 680, BioRad) at 490 nm. To evaluate the binding activities of the three selected phage clones to various human cancer cell lines, cellular ELISA was performed to detect sixteen types of human cancer cell lines, including A498, HTB-10, B16-F10, SKOV3, PC-3, U2OS, 1112SK, […], SAS, H460, MIA Paca-2, HCT116, HUVAC, CL1-5, Mahlavu, and MDA-MB-231.

Mahlavu = test: Cellular ELISA of phage clones; type: binding, human
Procedure: as §1

HUVAC = test: Cellular ELISA of phage clones; type: binding, human
Procedure: as §1

HTB-10 = test: Cellular ELISA of phage clones; type: binding, human
Procedure: as §1

1112SK = test: Cellular ELISA of phage clones; type: binding, human
Procedure: as §1

MIA Paca-2 = test: Cellular ELISA of phage clones; type: binding, human
Procedure: as §1

U2OS = test: Cellular ELISA of phage clones; type: binding, human
Procedure: as §1

SKOV3 = test: Cellular ELISA of phage clones; type: binding, human
Procedure: as §1

H184 = test: Cellular ELISA of phage clones; type: binding, human
Procedure: as §1

PC-3 = test: Cellular ELISA of phage clones; type: binding, human
Procedure: as §1

MDA-MB-231 = test: Cellular ELISA of phage clones; type: binding, human
Procedure: as §1

SAS = test: Cellular ELISA of phage clones; type: binding, human
Procedure: as §1

CL1-5 = test: Cellular ELISA of phage clones; type: binding, human
Procedure: as §1

A498 = test: Cellular ELISA of phage clones; type: binding, human
Procedure: as §1

COLO205 = test: Flow cytometry surface binding of phage clones; set-up: species or system human
Procedure: Cells were grown to 70-80% confluence and were harvested with 10 mM EDTA in PBS. Peripheral blood mononuclear cells were prepared by using Ficoll-Paque Plus density gradient separation. After washing and suspending the cells with FACS buffer (PBS containing 1% fetal bovine serum), the cells were incubated for 1 hr at 4° C. with 5×10^9, 1×10^9 cfu individual phage clones or control phage, respectively. After washing twice with FACS buffer, cells were incubated with mouse anti-M13 monoclonal antibody (GE Healthcare) at 1:2000 dilution for 1 hr followed by 30 min with phycoerythrin (PE)-conjugated goat anti-mouse secondary antibody (Jackson ImmunoResearch) at 1:250 dilution at 4° C. The emission fluorescence signals were measured using FACSCantoll (Becton Dickinson) and were analyzed by FlowJo software.

HCT116 xenografts = test: Immunohistochemical localization of phages in xenograft tumor and organs; type: in vivo, mice; settings: tumor vs brain, heart, lungs, colon
Procedure: The tissue samples from in vivo phage homing experiment were embedded in frozen blocks. To evaluate the phage distribution in each tissue by immunohistochemistry, the frozen specimens were cut to 8-μm-thick sections and were collected on coated slides. The slides were washed with cold PBS to remove OCT and were fixed with 4% paraformaldehyde for 10 min at RT. To block endogenous peroxidase activity, the slides were soaked with 3% hydrogen peroxide in methanol for 30 min at RT. The nonspecific antibody binding sites were blocked by immersing the section with 1% BSA in PBS for 30 min at RT. The tissue sections were incubated with mouse anti-M13 monoclonal antibody at 1:250 dilution for 1 hr, followed by adding Super Enhancer reagent (Super SENSITIVE™ Polymer HRP Detection System/DAB, BioGenex) for 20 min and Poly-HRP reagent (BioGenex) for 30 min. After washing, the sections were developed with DAB (3,3′-diaminobenzidine) Chromogen (BioGenex) supplemented with Stable DAB buffer. The reaction was stopped by adding PBS. For nuclei staining, the slides were immersed in hematoxylin for 5 min, and were then mounted with mounting solution to terminate the reaction. The images of sections were taken and analyzed using automated acquisition system (TissueGnostics).

SSMDIVLRAPLM [HCT74]
selectively localized in tumor tissues: phage localization by immunostaining of tissue sections (HCT116 xenografts)
highly specific binding: binding by cellular ELISA (H460) | binding by cellular ELISA (Mahlavu) | binding by cellular ELISA (HUVAC) | binding by cellular ELISA (1112SK) | binding by cellular ELISA (MIA Paca-2) | binding by cellular ELISA (U2OS) | binding by cellular ELISA (SKOV3) | binding by cellular ELISA (H184) | binding by cellular ELISA (PC-3) | binding by cellular ELISA (MDA-MB-231) | binding by cellular ELISA (SAS) | binding by cellular ELISA (A498)
weak affinity: binding activity by FACS (COLO205)
moderate binding: binding by cellular ELISA (HTB-10) | binding by cellular ELISA (CL1-5)
strong accumulated in the tumor: phage localization by immunostaining of tissue sections (HCT116 xenografts; listed as HCT-74)
